Results on five molecules are retold here after US7989466B2, “Methods to inhibit or augment an inflammatory response” (Cambridge Enterprise Limited, priority 1999, dated 2011).

Like-named read-outs stand apart in the source and are kept apart here. Marks after values point to notes of the source that are not given here. Positions of bridges follow the written chain, without caps; N, C: chain ends. Non-standard residues stand in square brackets, D forms with d. Residues, ends and D or L forms follow the SMILES beside them. No end group written: not given here.

The subject of assay [1] is MCP-1 induced THP-1 migration. In words: THP-1 trans-well migration assay, MCP-1 as chemoattractant. The settings on record: for % inhibition at 100 μM versus MCP-1, THP-1 migration: agent with the cells, n.s. = no statistically significant inhibition. In kind it is cell-based, human. In a few lines:
(§1)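 5×10^4 THP-1 cells with serially diluted peptide in upper chamber, 5 µm filter, recombinant human chemokine 50 ng/ml (5.9 nM) in lower chamber. Incubated 4 h at 37 °C. Migrated cells counted by MTT staining, A595 read against a THP-1 standard curve.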

In assay [2] the test system is chemokine receptors on THP-1 cells. Briefly: Binding to chemokine receptors on THP-1 cells. Set-up: species or system human. On the procedure: In general, specific binding is calculated as the amount of labeled agent bound in the absence of cold competitor minus the amount of labeled agent bound in the presence of cold competitor. The amount of specific binding in the presence of varied amounts of cold competitor can be used to determine the association constant for the agent, as well as the number of binding sites on the cell for the agent, using, for example, Scatchard Analysis. The agent may be labeled by radiolabeling (e.g., iodination) or with a suitable biochemical tag (e.g., biotin) or by addition of a photoactivatable crosslinking group. Agents with an association constant lower than 100 μM (i.e., which bind more strongly than an agent with an association constant of 100 μM) and which have at least about 2,500, preferably at least about 10,000, and more preferably greater than 25,000, binding sites per cell for at least one cell type which expresses a chemokine receptor, fall under the scope of this invention. THP-1 cells have at least about 5,000 MCP-1 receptors/cell.
For example, monocytes are suspended in RPMI 1640 medium without bicarbonate containing 0.2% bovine serum albumin and 0.1% azide. Radiolabeled chemokine peptide is incubated with 1-2×10^6 cells, e.g., THP-1 cells, in the presence or absence of increasing concentrations of unlabeled chemokine (MCP-1, MCP-3, MCP-4, RANTES or MIP-1α) for 15 minutes at 37° C. in a 96-well plate in a final volume of 0.2 ml (e.g., PBS+0.5% FCS). After the incubation, 0.5 ml of ice-cold wash buffer (20 mM Tris, 0.5 M NaCl, pH 7.4) is added, and cells are collected onto a polyethyleneimine-treated Whatman GF/C filter using a Brandall cell harvester. Filters are washed with 4 ml of cold wash buffer, and the radioactivity bound to the filters is counted in a γ-counter.
For Scatchard analysis, the absorbance readings at 450 nm were calibrated, by reference to a standard curve in which known amounts of labeled peptide were coupled to derivatized sepharose beads (activated thiol-sepharose 4B; Sigma T8512) via the cysteine residue in each peptide. Briefly, known amounts (1 fmol to 1 pmol) of biotin-labeled peptide were incubated with 1 mg of activated thiol-sepharose beads in 100 μl of PBS at 37° C. for 1 hour. Free activated thiols were then blocked by addition of cysteine to a final concentration of 10 mM. The peptide-conjugated beads were then washed 5 times in PBS and treated exactly as for the cells described above. The absorbance at 450 nm obtained when a known amount of peptide was coupled to the beads was used to construct a standard curve which was used to convert the absorbance readings obtained with cells into number of molecules of labeled peptide which had bound.

Assay [3] deals with SDF-1α induced THP-1 migration. Briefly: THP-1 trans-well migration assay, SDF-1α as chemoattractant. In kind it is cell-based, human. The settings on record: for % inhibition at 100 μM versus SDF-1α, THP-1 migration: n.s. = no statistically significant inhibition. Summed up: as §1
The mark [4] stands for this setting: n.s. = no statistically significant inhibition (p > 0.05).
Where [5] appears, read: ns = not significantly different from control.

Take `CC[C@@H](C)[C@H]1NC(=O)[C@@H](CCC(N)=O)NC(=O)[C@H](N)CSSC[C@H](C(N)=O)NC(=O)[C@@H](CC(C)C)NC(=O)[C@@H](CC(=O)O)NC(=O)[C@H]2CCCN2C(=O)[C@@H](CCCCN)NC(=O)[C@@H](CCC(N)=O)NC(=O)[C@@H](CCCCN)NC(=O)[C@@H](Cc2c[nH]c3ccccc23)NC1=O` (H-[dC][dQ][dI][dW][dK][dQ][dK][dP][dD][dL][dC]-NH2; disulfide 1-11; N-terminus assumed): the IC50 in assay [1] (read-out: MCP-1 inhibitory activity in the THP-1 transwell assay) was in the range of 0.005 to 0.1 µM. In assay [2], the “association constant for chemokine receptors on THP-1 cells” value (from here on “association constant … on THP-1 cells”) was 100 to 500 nM and the “number of binding sites per cell, THP-1 cells” value (from here on “number … per cell, THP-1 cells”) was “about 150,000 per cell”.
Take `C=CCCCCCCCCC(=O)N[C@H]1CCC(=O)NC1=O` [A-I (NR58.4), [3S]-3-(undec-10-enoylamino)piperidine-2,6-dione]: the EC50 in assay [3] (Homo sapiens, THP-1, read-out: ED50, SDF1α chemotaxis assay) amounted to 0.008 µM; in assay [1] (listed as NR58.4 (A-I), read-out: ED50 versus MCP-1 induced chemotaxis of THP-1), 0.002 µM.
Regarding `NCCCC[C@H](NC(=O)[C@H](CCC(N)=O)NC(=O)[C@@H](N)CCCCN)C(=O)O` [KQK], the “ED50 versus SDF-1α, inhibition of THP-1 migration” value in assay [3] (setting [4]) is reported as “n.s”. In addition, the “percentage inhibition of migration induced by SDF1α” value in assay [3] (tripeptide at 100 μM, mean ± range, dash = no statistically significant reduction in migration) turned out to be 29 ± 1%. For the same molecule, the “percentage inhibition of migration induced by MCP-1” value in assay [1] (tripeptide at 100 μM, mean ± range of two experiments, dash = no statistically significant reduction in migration) is 95 ± 8^b %. For the same molecule, in assay [2], the “number … per cell, THP-1 cells” value is recorded as “about 15,000 per cell”. For the same molecule, in assay [2] (range printed with mixed units), the “association constant … on THP-1 cells” value is 500 nM-1 μM.
As for EICADPKQKWVQ [peptide 3(1-12)[MCP-1]], the % inhibition (commonly the drop in the measured response relative to a control, in per cent) at 100 μM versus SDF-1α, THP-1 migration in assay [3] amounted to 107%. Also, the EC50 stood at 10 µM in assay [3] (n.s. = no statistically significant inhibition (p > 0.05), read-out: ED50 versus SDF-1α, inhibition of THP-1 migration) and 8 ± 1 µM in assay [1] (agent with the cells in the upper compartment, n.s. = no statistically significant inhibition (p > 0.05), read-out: ED50 versus MCP-1, inhibition of THP-1 migration). Also, the “% inhibition at 100 μM versus MCP-1, THP-1 migration” value in assay [1] (100 μM) was more than 99%; in assay [1] (100 μM, listed as Peptide 3 (SEQ ID NO: 1)) it was 112%. Besides, the “% inhibition of MCP-1 induced migration at 100 μM, peptide with the chemokine in the lower compartment” value in assay [1] (100 μM, lower compartment) amounted to 17%. In addition, the “number … per cell, THP-1 cells” value in assay [2] came to 1000 per cell. Besides, the “association constant (ka) for binding to THP-1 cells” value in assay [2] (listed as Peptide 3) was “about 10 μM”; in assay [2] (listed as peptide 3), 7 µM. The Kd in assay [2] (read-out: affinity constant for binding to THP-1 cells in the presence of 100 μM peptide 2) was 8 µM.
For the molecule “SYRRITSSKCPKEAV [peptide 2(1-15)[MCP-1]]”, in assay [3], the “% inhibition at 100 μM versus SDF-1α, THP-1 migration” value is “n.s”. The “ED50 versus SDF-1α, inhibition of THP-1 migration” value in assay [3] (setting [4]) is reported as “n.s”. Also, in assay [3] (setting [5]), the “SDF1a ED-50” value is “ns”. Besides, the “% inhibition at 100 μM versus MCP-1, THP-1 migration” value is reported as “n.s” in assay [1] (100 μM, listed as Peptide 2 (SEQ ID NO: 3)) and 19% in assay [1] (100 μM, listed as Peptide 2[MCP-1]). The “ED50 versus MCP-1, inhibition of THP-1 migration” value in assay [1] (agent with the cells in the upper compartment, n.s. = no statistically significant inhibition (p > 0.05)) is given as “n.s”. Besides, the “MCP-1 ED-50” value in assay [1] (setting [5]) is reported as “ns”. The “AVERAGE ED50, peptide 2 family: estimated ka for binding to THP-1 cells” value in assay [2] is given as 2^e μM. Moreover, in assay [2], the “association constant (ka) for binding to THP-1 cells” value amounted to 2 µM. Further, the “number … per cell, THP-1 cells” value in assay [2] is recorded as 130,000 per cell. For the same molecule, the “association constant … on THP-1 cells” value worked out at 250 nM in assay [2] (listed as peptide 2) and 300 nM in assay [2] (listed as peptide 2(1-15)[MCP1]).
